Source: patent US20250073251A1, “COMPOSITIONS AND METHODS AND USES THEREOF” (Journey Medical Corporation, priority 2019, published 2025)
Values joined by “and” are separate entries in the source; they are usually repeats but may differ in a detail not shown here. Identical values can stand only once.

Key:
[1] = Toxicokinetics after daily dermal application
Protocol: Bioanalytical Sample Collection Blood samples (approximately 2 mL) are collected from all surviving animals via the abdominal vena cava through the thoracic inlet for determination of the plasma concentrations of adapalene and minocycline (see Tables 5 and 6). The animals were not fasted prior to blood collection, with the exception of the intervals that coincided with fasting for clinical pathology collections.
Blood samples are collected in tubes containing K2EDTA and placed on wet ice and centrifuged under refrigerated conditions. The resulting plasma is divided into 3 aliquots (100 μL in Aliquot 1 [minocycline], 500 μL in Aliquot 2 [adapalene], and any remaining plasma in Aliquot 3) in pre-labeled cryovials. All aliquots are stored frozen at −60° C. to −90° C.
The TK parameters are determined for adapalene and minocycline from individual concentration-time data by the Testing Facility.

[2] = test system: moderate-to-severe acne vulgaris; details: human, in vivo

Compound: COc1ccc(-c2ccc3cc(C(=O)O)ccc3c2)cc1C12CC3CC(CC(C3)C1)C2 [adapalene]
- mean Cmax and AUC0-24hr for adapalene versus dose ([1]; 0.25 to […] adapalene with […] minocycline, Day 91): approximately dose proportional
- systemic exposure, dependence on sex ([1]; Day 91): independent of sex
- Tmax ([1]; Group 3, adapalene […] alone, daily dermal, Day 91, minimum-maximum (median not reported)): (0-8) hr
- Tmax ([1]; Group 4, adapalene […] + minocycline […] FCD105 Foam, Day 1, minimum-maximum (median not reported)): (8-24) hr
- Tmax ([1]; Group 4, adapalene […] + minocycline […] FCD105 Foam, Day 91, minimum-maximum (median not reported)): (0-24) hr
- Tmax ([1]; Göttingen, minipig, plasma, topical or ocular, […], Tmax, Group 3, adapalene […] alone, daily dermal, Day 1, median): 24 h
- Tmax ([1]; Göttingen, minipig, plasma, topical or ocular, […], Tmax, Group 5, adapalene […] + minocycline […] FCD105 Foam, Day 1, median): 24 h
- Tmax ([1]; Göttingen, minipig, plasma, topical or ocular, […], Tmax, Group 5, adapalene […] + minocycline […] FCD105 Foam, Day 91, median): 1 h
- Tmax ([1]; Göttingen, minipig, plasma, topical or ocular, […], Tmax, Group 6, adapalene […] + minocycline […] FCD105 Foam, Day 1, median): 24 h
- Tmax ([1]; Göttingen, minipig, plasma, topical or ocular, […], Tmax, Group 6, adapalene […] + minocycline […] FCD105 Foam, Day 91, median): 1 h

Compound: COc1ccc(-c2ccc3cc(C(=O)O)ccc3c2)cc1C12CC3CC(CC(C3)C1)C2 [0.3% adapalene foam]
- AE Maximum Severity: Mild [2]: 14 (12.5%)
- AE Maximum Severity: Moderate [2]: 4 (3.6%)
- AE Maximum Severity: Severe [2]: 2 (1.8%)
- Abdominal pain [2]: 0 subjects (%)
- Acne, (%) of subjects [2]: (1.8%)
- Buming sensation [2]: 0 subjects (%)
- Burning and Stinging: None, subjects n (%) [2]: 82 (78.1%) and 97 (92.4%) and 89 (89.9%) and 105 (93.8%)
- Burning and Stinging: Severe, subjects n (%) [2]: 0
- Burning sensation [2]: 0 subjects (%)
- Constipation [2]: 0 subjects (%)
- Dehydration [2]: 0 subjects (%)
- Dermatitis contact [2]: 0 subjects (%)
- Diastolic Blood Pressure, Max [2]: 58, 98 mmHg and 56, 93 mmHg and 57, 94 mmHg and 48, 94 mmHg
- Diastolic Blood Pressure, Mean [2]: 73.1 mmHg and 72.8 mmHg and 72.1 mmHg
- Diastolic Blood Pressure, Median [2]: 72.0 mmHg
- Diastolic Blood Pressure, Min [2]: 58, 98 mmHg and 56, 93 mmHg and 57, 94 mmHg and 48, 94 mmHg
- Dryness: Mild, subjects n (%) [2]: 27 (24.1%) and 26 (24.8%) and 17 (17.2%)
- Dryness: None, subjects n (%) [2]: 82 (73.2%) and 75 (71.4%) and 77 (73.3%) and 81 (81.8%)
- Dryness: Severe, subjects n (%) [2]: 0
- Erythema: Mild, subjects n (%) [2]: 36 (32.1%) and 27 (25.7%) and 36 (34.3%) and 27 (27.3%)
- Erythema: None, subjects n (%) [2]: 51 (45.5%) and 55 (52.4%) and 58 (55.2%) and 62 (62.6%)
- Erythema: Severe, subjects n (%) [2]: 1 (0.9%) and 2 (1.9%) and 1 (1.0%)
- Heart Rate, Max [2]: 52, 100 beats/min and 52, 99 beats/min and 51, 99 beats/min and 52, 96 beats/min
- Heart Rate, Mean [2]: 75.9 beats/min and 76.1 beats/min and 75.7 beats/min and 74.1 beats/min
- Heart Rate, Median [2]: 73.0 beats/min and 77.0 beats/min and 76.0 beats/min
- Heart Rate, Min [2]: 52, 100 beats/min and 52, 99 beats/min and 51, 99 beats/min and 52, 96 beats/min
- Hyperaesthesia [2]: 0 subjects (%)
- Hyperpigmentation: Mild, subjects n (%) [2]: 20 (19.0%) and 19 (19.2%) and 31 (27.7%) and 22 (21.0%)
- Hyperpigmentation: Moderate, subjects n (%) [2]: 4 (3.8%) and 4 (4.0%) and 6 (5.4%)
- Hyperpigmentation: None, subjects n (%) [2]: 81 (77.1%) and 76 (76.8%) and 75 (67.0%) and 79 (75.2%)
- Hyperpigmentation: Severe, subjects n (%) [2]: 0
- Immune system disorders [2]: 0 subjects (%)
- Infectious mononucleosis [2]: 0 subjects (%)
- Itching: None, subjects n (%) [2]: 87 (77.7%) and 79 (75.2%) and 86 (81.9%) and 86 (86.9%)
- Ligament rupture [2]: 0 subjects (%)
- Metabolism and nutrition disorders [2]: 0 subjects (%)
- Nail discolouration [2]: 0 subjects (%)
- Nasopharyngitis [2]: 0 subjects (%)
- Nausea [2]: 0 subjects (%)
- Neoplasms benign, malignant and unspecified (incl cysts and polyps) [2]: 0 subjects (%)
- Number (%) of subjects withdrawn from study due to TEAE [2]: 3 (2.7%) subjects (%)
- Number (%) of subjects withdrawn from study due to treatment-related TEAE [2]: 3 (2.7%) subjects (%)
- Oropharyngeal pain [2]: 0 subjects (%)
- Otitis media acute [2]: 0 subjects (%)
- Pain [2]: 0 subjects (%)
- Pain of skin [2]: 0 subjects (%)
- Paranasal sinus discomfort [2]: 0 subjects (%)
- Pharyngitis streptococcal [2]: 0 subjects (%)
- Pyogenic granuloma [2]: 0 subjects (%)
- Rash, (%) of subjects [2]: (0.9%)
- Rhinorrhoea [2]: 0 subjects (%)
- Scaling: Mild, subjects n (%) [2]: 21 (18.8%) and 19 (18.1%) and 17 (16.2%) and 12 (12.1%)
- Scaling: Moderate, subjects n (%) [2]: 2 (1.8%) and 3 (2.9%) and 2 (1.9%) and 3 (3.0%)
- Scaling: None, subjects n (%) [2]: 89 (79.5%) and 83 (79.0%) and 86 (81.9%) and 84 (84.8%)
- Scaling: Severe, subjects n (%) [2]: 0
- Sciatica [2]: 0 subjects (%)
- Seasonal allergy [2]: 0 subjects (%)
- Serious AE [2]: 0
- Subjects reporting at least one treatment-related TEAE [2]: 10 (8.9%) subjects (%)
- Subjects with any TEAE leading to discontinuation of study drug [2]: 3 (2.7%)
- Subjects with at least one AE [2]: 20 (17.9%)
- Systolic Blood Pressure, Max [2]: 92, 150 mmHg and 96, 150 mmHg and 95, 152 mmHg and 92, 149 mmHg
- Systolic Blood Pressure, Mean [2]: 116.7 mmHg
- Systolic Blood Pressure, Min [2]: 92, 150 mmHg and 96, 150 mmHg and 95, 152 mmHg and 92, 149 mmHg
- TEAE: Abdominal pain [2]: 0
- TEAE: Acne [2]: 2 (1.8%)
- TEAE: Acute sinusitis [2]: 1 (0.9%)
- TEAE: Burning sensation [2]: 0
- TEAE: Burns first degree [2]: 1 (0.9%)
- TEAE: Constipation [2]: 0
- TEAE: Cough [2]: 1 (0.9%)
- TEAE: Dehydration [2]: 0
- TEAE: Dermatitis contact [2]: 0
- TEAE: Diarrhoea [2]: 1 (0.9%)
- TEAE: Dry skin [2]: 4 (3.6%)
- TEAE: Eczema [2]: 1 (0.9%)
- TEAE: Erythema of eyelid [2]: 1 (0.9%)
- TEAE: Eye disorders [2]: 3 (2.7%)
- TEAE: Eye irritation [2]: 2 (1.8%)
- TEAE: Facial bones fracture [2]: 1 (0.9%)
- TEAE: Gastrointestinal disorders [2]: 1 (0.9%)
- TEAE: General disorders and administration site conditions [2]: 1 (0.9%)
- TEAE: Headache [2]: 2 (1.8%)
- TEAE: Hordeolum [2]: 1 (0.9%)
- TEAE: Hyperaesthesia [2]: 0
- TEAE: Immune system disorders [2]: 0
- TEAE: Infections and infestations [2]: 8 (7.1%)
- TEAE: Infectious mononucleosis [2]: 0
- TEAE: Injury, poisoning and procedural complications [2]: 2 (1.8%)
- TEAE: Ligament rupture [2]: 0
- TEAE: Ligament sprain [2]: 1 (0.9%)
- TEAE: Metabolism and nutrition disorders [2]: 0
- TEAE: Nail discolouration [2]: 0
- TEAE: Nasopharyngitis [2]: 0
- TEAE: Nausea [2]: 0
- TEAE: Neoplasms benign, malignant and unspecified (incl cysts and polyps) [2]: 0
- TEAE: Nervous system disorders [2]: 2 (1.8%)
- TEAE: Oropharyngeal pain [2]: 0
- TEAE: Otitis media acute [2]: 0
- TEAE: Pain [2]: 0
- TEAE: Pain of skin [2]: 0
- TEAE: Pharyngitis [2]: 1 (0.9%)
- TEAE: Pharyngitis streptococcal [2]: 0
- TEAE: Pyogenic granuloma [2]: 0
- TEAE: Rash [2]: 2 (1.8%)
- TEAE: Respiratory, thoracic and mediastinal disorders [2]: 1 (0.9%)
- TEAE: Rhinorrhoea [2]: 0
- TEAE: Sciatica [2]: 0
- TEAE: Seasonal allergy [2]: 0
- TEAE: Sinusitis [2]: 1 (0.9%)
- TEAE: Skin discolouration [2]: 1 (0.9%)
- TEAE: Skin irritation [2]: 1 (0.9%)
- TEAE: Staphylococcal infection [2]: 1 (0.9%)
- TEAE: Toothache [2]: 0
- TEAE: Upper respiratory tract infection [2]: 1 (0.9%)
- TEAE: Viral upper respiratory tract infection [2]: 1 (0.9%)
- TEAE: Vomiting [2]: 0
- Toothache [2]: 0 subjects (%)
- Treatment-Related AE [2]: 10 (8.9%)
- Vomiting [2]: 0 subjects (%)
- Weight, Max [2]: 43.5, 163.3 kg and 43.5, 166.0 kg
- Weight, Mean [2]: 77.06 kg and 77.28 kg
- Weight, Median [2]: 71.10 kg and 71.50 kg
- Weight, Min [2]: 43.5, 163.3 kg and 43.5, 166.0 kg
- Withdrawal from Study, Primary Reason: Adverse Event, % of subjects [2]: 3 (2.7%)
- Withdrawal from Study, Primary Reason: Adverse Event, number of subjects [2]: 3 (2.7%)
- adverse events assessed as mild in severity [2]: 12.5%
- dry skin adverse event [2]: 3.6%
- overall tolerability (LSTA) scores compared to the other treatment groups [2]: lower
- subject discontinuations due to a treatment emergent adverse event [2]: 2.7%
- subjects with TEAEs that led to discontinuation of study drug [2]: 3 subjects
- subjects with severe (treatment related) TEAE [2]: 1.8%
- treatment emergent adverse events, frequency [2]: 8.9%
- TEAE: Skin and subcutaneous tissue disorders ([2]; sc): 10 (8.9%)
